Test results from patent US20250002475A1 (EPICS THERAPEUTICS, priority 2023, published 2025).

Columns and labels:
Kasumi-1 cells = assay: Kasumi-1 cellular viability assay (ATP-Lite, 72 h); assay type: cell-based; conditions: Homo sapiens, ATP-Lite luminescence, % viability relative to DMSO
Procedure, shortened: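 Viability was read by ATP-Lite One Step luminescence after 72 h compound treatment at 37 °C/5% CO2, normalised to DMSO control, with IC50 fitted from concentration-response. Cells were Kasumi-1 (AML FAB M2) at 15000 per well in RPMI-1640/10% FBS, 0.1% DMSO final.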

[1] = molecular target: T1, recombinant METTL3/METTL14 complex (Homo sapiens, UniProt Q86U44); assay: METTL3/14 Scintillation Proximity Assay (SPA), RNA methyltransferase activity; assay type: biochemical; conditions: 5.31 nM METTL3/14 complex, 250 nM RNA substrate, 1 μM 3H-SAM, 90 min; for compounds marked * best of the two separated forms
T1 construct: purchased Active Motif 311970; host or cells: Sf9 cells

Caov-3 cells = assay: Caov-3 cellular viability assay (ATP-Lite, 72 h); assay type: cell-based; conditions: Homo sapiens, ATP-Lite luminescence, % viability relative to DMSO
Procedure, shortened: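 IC50 values come from concentration-response fits of luminescent ATP content (ATP-Lite One Step), normalised as % viability versus DMSO. Compound exposure was 72 h at 37 °C in RPMI-1640/10% FBS with 0.1% final DMSO. Wells held 10000 cells each.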

T1 sequence (Q86U44 whole entry): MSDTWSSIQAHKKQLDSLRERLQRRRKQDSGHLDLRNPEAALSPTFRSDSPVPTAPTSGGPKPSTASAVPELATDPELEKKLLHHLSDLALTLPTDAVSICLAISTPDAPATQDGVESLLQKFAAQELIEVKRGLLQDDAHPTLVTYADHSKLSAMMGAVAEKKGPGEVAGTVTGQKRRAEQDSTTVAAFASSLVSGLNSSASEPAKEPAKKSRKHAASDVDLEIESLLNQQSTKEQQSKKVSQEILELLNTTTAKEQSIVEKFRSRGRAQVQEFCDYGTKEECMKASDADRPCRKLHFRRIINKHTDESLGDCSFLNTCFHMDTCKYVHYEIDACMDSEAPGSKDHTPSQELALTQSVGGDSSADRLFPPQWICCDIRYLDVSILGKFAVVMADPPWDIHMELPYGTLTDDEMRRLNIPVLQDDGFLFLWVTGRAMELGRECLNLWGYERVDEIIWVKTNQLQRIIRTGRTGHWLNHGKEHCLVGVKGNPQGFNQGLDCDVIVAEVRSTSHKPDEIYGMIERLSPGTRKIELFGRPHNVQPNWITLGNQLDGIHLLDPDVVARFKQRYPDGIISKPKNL
T1 sequence (Q9HCE5 whole entry partner): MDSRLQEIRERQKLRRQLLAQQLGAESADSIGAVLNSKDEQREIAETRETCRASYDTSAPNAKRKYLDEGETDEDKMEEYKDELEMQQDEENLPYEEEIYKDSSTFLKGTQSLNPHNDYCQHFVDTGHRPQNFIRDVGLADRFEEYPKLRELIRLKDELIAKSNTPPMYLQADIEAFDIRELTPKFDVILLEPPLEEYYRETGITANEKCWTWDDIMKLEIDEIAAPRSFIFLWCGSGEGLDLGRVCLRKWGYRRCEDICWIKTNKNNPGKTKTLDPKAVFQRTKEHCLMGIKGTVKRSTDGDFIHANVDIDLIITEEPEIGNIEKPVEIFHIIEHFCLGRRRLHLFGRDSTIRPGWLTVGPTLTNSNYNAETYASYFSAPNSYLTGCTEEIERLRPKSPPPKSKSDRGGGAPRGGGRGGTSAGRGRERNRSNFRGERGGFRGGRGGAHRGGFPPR

c1ncc(C2CCCC2)cc1-c1cn(C2(c3ccc(N4CCC[C@@H](NCC5CC5)C4)cn3)COC2)nn1 [Compound 313, (R)-1-(6-(3-(4-(5-cyclopentylpyridin-3-yl)-1H-1,2,3-triazol-1-yl)oxetan-3-yl)pyridin-3-yl)-N-(cyclopropylmethyl)piperidin-3-amine]
IC50 (Kasumi-1 cells): ≤ 500 nM | IC50 [1]: ≤ 50 nM | IC50 (Caov-3 cells): ≤ 500 nM

CCC(c1ccc(N2CCC[C@@H](NCC3CCC3)C2)nn1)n1cc(-c2cncc(OC)c2)nn1 (single isomer, unassigned) [Compound 085]
IC50 (Kasumi-1 cells): > 5000 nM | IC50 [1]: ≤ 50 nM | IC50 (Caov-3 cells): 500 to 5000 nM

O=C(Nc1cc(=O)n2ccccc2n1)C1(c2ccc(N3CCC[C@@H](NC4CCCC4)C3)cn2)COC1 [Compound 326, (R)-3-(5-(3-(cyclopentylamino)piperidin-1-yl)pyridin-2-yl)-N-(4-oxo-4H-pyrido[1,2-a]pyrimidin-2-yl)oxetane-3-carboxamide]
IC50 (Kasumi-1 cells): 500 to 5000 nM | IC50 [1]: ≤ 50 nM | IC50 (Caov-3 cells): ≤ 500 nM

CC(C)CN[C@@H]1CCCN(c2ccc(C3(n4cc(-c5cncc(C6CC6)c5)nn4)COC3)nc2)C1 [Compound 329, (R)-1-(6-(3-(4-(5-cyclopropylpyridin-3-yl)-1H-1,2,3-triazol-1-yl)oxetan-3-yl)pyridin-3-yl)-N-isobutylpiperidin-3-amine]
IC50 (Kasumi-1 cells): ≤ 500 nM | IC50 [1]: ≤ 50 nM | IC50 (Caov-3 cells): ≤ 500 nM

CC(c1cnn(-c2cncc(N(C)C)c2)c1)n1ccc(N2CCC[C@@H](NCC3CC3)C2)cc1=O (stereo partly drawn) [Compound 196, 4-((R)-3-((cyclopropylmethyl)amino)piperidin-1-yl)-1-(1-(1-(5-(dimethylamino)pyridin-3-yl)-1H-pyrazol-4-yl)ethyl)pyridin-2(1H)-one]
IC50 (Kasumi-1 cells): ≤ 500 nM | IC50 [1]: ≤ 50 nM | IC50 (Caov-3 cells): ≤ 500 nM

c1ncc(C2CC2)cc1-c1cn(C2(c3ccc(N4CCC[C@@H](NCC5CC5)C4)cn3)COC2)nn1 [Compound 256, (R)-N-(cyclopropylmethyl)-1-(6-(3-(4-(5-cyclopropylpyridin-3-yl)-1H-1,2,3-triazol-1-yl)oxetan-3-yl)pyridin-3-yl)piperidin-3-amine]
IC50 (Kasumi-1 cells): ≤ 500 nM | IC50 [1]: ≤ 50 nM | IC50 (Caov-3 cells): ≤ 500 nM

CN(C)c1cncc(-c2cn(C3(c4ccc(N5CCC[C@@H](NCC6CCC6)C5)cn4)COC3)nn2)c1 [Compound 149, (R)-5-(1-(3-(5-(3-((cyclobutylmethyl)amino)piperidin-1-yl)pyridin-2-yl)oxetan-3-yl)-1H-1,2,3-triazol-4-yl)-N,N-dimethylpyridin-3-amine]
IC50 (Kasumi-1 cells): ≤ 500 nM | IC50 [1]: ≤ 50 nM | IC50 (Caov-3 cells): ≤ 500 nM

c1nnc(-c2cn(C3(c4ccc(N5CCC[C@@H](NCC6CC6)C5)cn4)COC3)nn2)cc1N1CCCC1 [Compound 202, (R)-N-(cyclopropylmethyl)-1-(6-(3-(4-(5-(pyrrolidin-1-yl)pyridazin-3-yl)-1H-1,2,3-triazol-1-yl)oxetan-3-yl)pyridin-3-yl)piperidin-3-amine]
IC50 (Kasumi-1 cells): ≤ 500 nM | IC50 [1]: ≤ 50 nM | IC50 (Caov-3 cells): ≤ 500 nM

c1ncc(C2CC2)cc1-c1nnc(Cc2ccc(N3CCC[C@@H](NCC4CC4)C3)cn2)s1 [Compound 362, (R)-N-(cyclopropylmethyl)-1-(6-((5-(5-cyclopropylpyridin-3-yl)-1,3,4-thiadiazol-2-yl)methyl)pyridin-3-yl)piperidin-3-amine]
IC50 (Kasumi-1 cells): ≤ 500 nM | IC50 [1]: ≤ 50 nM | IC50 (Caov-3 cells): ≤ 500 nM

COc1cncc(-c2cn(C(C)c3ccc(N4CCC[C@@H](NCC5CCC5)C4)cc3)nn2)c1 (mixture of isomers) [Compound 076, (3R)-N-(cyclobutylmethyl)-1-(4-(1-(4-(5-methoxypyridin-3-yl)-1H-1,2,3-triazol-1-yl)ethyl)phenyl)piperidin-3-amine]
IC50 (Kasumi-1 cells): 500 to 5000 nM | IC50 [1]: ≤ 50 nM | IC50 (Caov-3 cells): 500 to 5000 nM

c1cc(C2(n3cc(-c4cncc(N5CCCC5)n4)nn3)COC2)ccc1N1CCC[C@@H](NCC2CCC2)C1 [Compound 301, (R)-N-(cyclobutylmethyl)-1-(4-(3-(4-(6-(pyrrolidin-1-yl)pyrazin-2-yl)-1H-1,2,3-triazol-1-yl)oxetan-3-yl)phenyl)piperidin-3-amine]
IC50 (Kasumi-1 cells): ≤ 500 nM | IC50 [1]: ≤ 50 nM | IC50 (Caov-3 cells): ≤ 500 nM

CC(n1cnc(-c2cncc(N(C)C)n2)c1)n1ccc(N2CCC[C@@H](NCC3CC3)C2)cc1=O (single isomer, unassigned) [Compound 229]
IC50 (Kasumi-1 cells): ≤ 500 nM | IC50 [1]: ≤ 50 nM | IC50 (Caov-3 cells): ≤ 500 nM

CN(CC1CCC1)[C@@H]1CCCN(c2ccc(C3(C(=O)Nc4cc(=O)n5ccccc5n4)COC3)nc2)C1 [Compound 272, (R)-3-(5-(3-((cyclobutylmethyl)(methyl)amino)piperidin-1-yl)pyridin-2-yl)-N-(4-oxo-4H-pyrido[1,2-a]pyrimidin-2-yl)oxetane-3-carboxamide]
IC50 (Kasumi-1 cells): 500 to 5000 nM | IC50 [1]: ≤ 50 nM | IC50 (Caov-3 cells): 500 to 5000 nM

COc1cc(-c2cn(Cc3ccc(N4CCCC(N5CCC(C)(C)CC5)C4)nn3)nn2)c2cn[nH]c2c1 (stereo not drawn) [Compound 006, 4-(1-((6-(4,4-dimethyl-[1,3′-bipiperidin]-1′-yl)pyridazin-3-yl)methyl)-1H-1,2,3-triazol-4-yl)-6-methoxy-1H-indazole]
IC50 (Kasumi-1 cells): 500 to 5000 nM | IC50 [1]: ≤ 50 nM | IC50 (Caov-3 cells): 500 to 5000 nM

CN(C)c1cncc(NC(=O)C2(c3ccc(N4CCC[C@@H](NCC5CC5)C4)cn3)COC2)c1 [Compound 175, (R)-3-(5-(3-((cyclopropylmethyl)amino)piperidin-1-yl)pyridin-2-yl)-N-(5-(dimethylamino)pyridin-3-yl)oxetane-3-carboxamide]
IC50 (Kasumi-1 cells): 500 to 5000 nM | IC50 [1]: ≤ 50 nM | IC50 (Caov-3 cells): 500 to 5000 nM

CC(n1cc(-c2cc(=O)n3ccccc3n2)nn1)n1ccc(N2CCC[C@@H](NCC3CCC3)C2)cc1=O (single isomer, unassigned) [Compound 088]
IC50 (Kasumi-1 cells): 500 to 5000 nM | IC50 [1]: ≤ 50 nM | IC50 (Caov-3 cells): 500 to 5000 nM

CC(c1ncc(N2CCC[C@@H](NCC3CCC3)C2)cc1F)n1cc(-c2cncc(N3CCCC3)n2)nn1 (single isomer, unassigned) [Compound 303]
IC50 (Kasumi-1 cells): ≤ 500 nM | IC50 [1]: ≤ 50 nM | IC50 (Caov-3 cells): ≤ 500 nM

COc1cncc(-c2cn(C3(c4ccc(N5CCC[C@@H](NCC6CCC6)C5)cn4)COC3)nn2)c1 [Compound 150, (R)-N-(cyclobutylmethyl)-1-(6-(3-(4-(5-methoxypyridin-3-yl)-1H-1,2,3-triazol-1-yl)oxetan-3-yl)pyridin-3-yl)piperidin-3-amine]
IC50 (Kasumi-1 cells): ≤ 500 nM | IC50 [1]: ≤ 50 nM | IC50 (Caov-3 cells): ≤ 500 nM

CC(c1nnc(-c2cncc(N3CCCC3)n2)s1)n1ccc(N2CCC[C@@H](NCC3CC3)C2)cc1=O (stereo partly drawn) [Compound 228, 4-((R)-3-((cyclopropylmethyl)amino)piperidin-1-yl)-1-(1-(5-(6-(pyrrolidin-1-yl)pyrazin-2-yl)-1,3,4-thiadiazol-2-yl)ethyl)pyridin-2(1H)-one]
IC50 (Kasumi-1 cells): ≤ 500 nM | IC50 [1]: ≤ 50 nM | IC50 (Caov-3 cells): ≤ 500 nM

COC1CN(c2cncc(-c3cn(C(C)n4ccc(N5CCC[C@@H](NCC6CCC6)C5)cc4=O)nn3)c2)C1 (single isomer, unassigned) [Compound 199]
IC50 (Kasumi-1 cells): ≤ 500 nM | IC50 [1]: ≤ 50 nM | IC50 (Caov-3 cells): ≤ 500 nM

COc1cncc(-c2cn(C(C)(C)c3ccc(N4CCC[C@@H](NCC5CCC5)C4)nn3)nn2)c1 [Compound 082, (R)-N-(cyclobutylmethyl)-1-(6-(2-(4-(5-methoxypyridin-3-yl)-1H-1,2,3-triazol-1-yl)propan-2-yl)pyridazin-3-yl)piperidin-3-amine]
IC50 (Kasumi-1 cells): 500 to 5000 nM | IC50 [1]: ≤ 50 nM | IC50 (Caov-3 cells): 500 to 5000 nM
